From PubChem BioAssay AID330 (DTP/NCI, 2004)
Where “and” joins values, the source holds several entries; their conditions need not be identical. Equal values may be shown once. Inconclusive results and toxic doses are left out. The calls were made as follows: active = survival T/C of 150% or more; inactive = T/C below 125% in these data.

System: P388 leukemia ip, CD2F1 mice, survival T/C
Experiment: NCI In Vivo Anticancer Drug Screen. Data for tumor model P388 Leukemia (intraperitoneal) in CD2F1 (CDF1) mice
Settings: endpoint: median survival time, higher = longer survival
How it was run: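 Mice carrying the transplanted tumor received test compound or vehicle. Survival was recorded in each group, and the value is the treated-group measurement divided by that of the vehicle-treated control group.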

[1] = dose: 25.0 mg/kg/injection, schedule: Q01DX009 (ip), vehicle: saline with Tween-80
[2] = dose: 50.0 mg/kg/injection, schedule: Q01DX009 (ip), vehicle: saline with Tween-80
[3] = dose: 100.0 mg/kg/injection, schedule: Q01DX009 (ip), vehicle: saline with Tween-80
[4] = dose: 200.0 mg/kg/injection, schedule: Q01DX009 (ip), vehicle: saline with Tween-80
[5] = dose: 50.0 mg/kg/injection, schedule: Q01DX005 (ip), vehicle: saline with Tween-80
[6] = dose: 100.0 mg/kg/injection, schedule: Q01DX005 (ip), vehicle: saline with Tween-80
[7] = dose: 200.0 mg/kg/injection, schedule: Q01DX005 (ip), vehicle: saline with Tween-80
[8] = dose: 50.0 mg/kg/injection, schedule: Q01DX009 (ip), vehicle: Klucel (hydroxypropylcellulose) (HPC)
[9] = dose: 100.0 mg/kg/injection, schedule: Q01DX009 (ip), vehicle: Klucel (hydroxypropylcellulose) (HPC)
[10] = dose: 200.0 mg/kg/injection, schedule: Q01DX009 (ip), vehicle: Klucel (hydroxypropylcellulose) (HPC)
[11] = dose: 50.0 mg/kg/injection, schedule: Q01DX005 (ip), vehicle: Klucel (hydroxypropylcellulose) (HPC)
[12] = dose: 100.0 mg/kg/injection, schedule: Q01DX005 (ip), vehicle: Klucel (hydroxypropylcellulose) (HPC)
[13] = dose: 200.0 mg/kg/injection, schedule: Q01DX005 (ip), vehicle: Klucel (hydroxypropylcellulose) (HPC)
[14] = dose: 60.0 mg/kg/injection, schedule: Q01DX005 (ip), vehicle: saline with Tween-80
[15] = dose: 120.0 mg/kg/injection, schedule: Q01DX005 (ip), vehicle: saline with Tween-80
[16] = dose: 240.0 mg/kg/injection, schedule: Q01DX005 (ip), vehicle: saline with Tween-80
[17] = dose: 100.0 mg/kg/injection, schedule: Q01DX001 (ip), vehicle: saline

Measured: T/C

CC(=O)OCC1OC(S[As](C)C)C(OC(C)=O)C(OC(C)=O)C1OC(C)=O (configuration not stated)
inactive: [1] 114 % of control | [2] 111 % of control | [3] 116 % of control | [4] 124 % of control

Cc1[nH]nc2c(NC[c-]3[c-][c-][c-][c-]3)ncnc12.[Fe].[c-]1[c-][c-][cH-][c-]1
inactive: dose: 6.25 mg/kg/injection, schedule: Q01DX005 (ip), vehicle: Klucel (hydroxypropylcellulose) (HPC) 101 % of control | dose: 12.5 mg/kg/injection, schedule: Q01DX005 (ip), vehicle: Klucel (hydroxypropylcellulose) (HPC) 100 % of control | dose: 25.0 mg/kg/injection, schedule: Q01DX005 (ip), vehicle: Klucel (hydroxypropylcellulose) (HPC) 115 % of control and 86 % of control

O=c1sc2ccccc2n1CCCl
inactive: [1] 112 % of control | [2] 110 % of control | [3] 114 % of control | [4] 103 % of control

COC(=O)C(CO)NC(=O)C(Cc1cnc[nH]1)N(C(=O)OCc1ccccc1)C(=O)OCc1ccccc1 (configuration not stated)
inactive: [5] 94 % of control | [6] 96 % of control | [7] 94 % of control

CCCCCCSc1nc2ccc(N=Cc3ccccc3O)cc2s1
inactive: [8] 94 % of control | [9] 87 % of control | [10] 90 % of control

C=C(C)/C=C/S(=O)c1ccccc1 (configuration not stated)
inactive: [11] 100 % of control | [12] 97 % of control | [13] 98 % of control

COc1ccc2c(c1OC)C(C(Cl)(Cl)Cl)N1CCc3cc4c(cc3C1=C2C=O)OCO4 (configuration not stated)
inactive: [5] 98 % of control | [6] 90 % of control | [7] 90 % of control

CC(=O)C(C)(C)Cc1cc(C(C)(C)CC=O)on1
inactive: [14] 107 % of control | [15] 100 % of control | [16] 108 % of control

CC1(n2[nH]c(=O)n(-c3ccccc3)c2=O)Cn2c(=O)n(-c3ccccc3)c(=O)n2-c2ccccc21 (configuration not stated)
inactive: [11] 101 % of control | [12] 96 % of control | [13] 108 % of control

N#CCC(=O)CCCCCCCO
inactive: [17] 93 % of control | dose: 400.0 mg/kg/injection, schedule: Q01DX001 (ip), vehicle: saline 92 % of control

C[C@@]1(CO)[C@H](O)CC[C@@]2(C)[C@H]1CC[C@H]1C[C@@H]3C[C@@]12CC[C@@]3(O)COC(=O)CN
inactive: dose: 5.0 mg/kg/injection, schedule: Q03HX027 (ip), vehicle: saline + alcohol 113 % of control | dose: 10.0 mg/kg/injection, schedule: Q03HX027 (ip), vehicle: saline + alcohol 118 % of control | dose: 12.5 mg/kg/injection, schedule: Q01DX009 (ip), vehicle: saline 105 % of control and 107 % of control | dose: 15.0 mg/kg/injection, schedule: Q01DX009 (ip), vehicle: saline + alcohol 118 % of control | dose: 25.0 mg/kg/injection, schedule: Q01DX005 (iv), vehicle: saline 105 % of control | dose: 25.0 mg/kg/injection, schedule: Q01DX009 (ip), vehicle: saline 107 % of control and 122 % of control | dose: 30.0 mg/kg/injection, schedule: Q01DX009 (ip), vehicle: saline + alcohol 117 % of control | dose: 40.0 mg/kg/injection, schedule: Q03HX027 (ip), vehicle: saline + alcohol 106 % of control | dose: 50.0 mg/kg/injection, schedule: Q01DX005 (iv), vehicle: saline 99 % of control | dose: 50.0 mg/kg/injection, schedule: Q01DX009 (ip), vehicle: saline 114 % of control | dose: 100.0 mg/kg/injection, schedule: Q01DX005 (iv), vehicle: saline 101 % of control | dose: 100.0 mg/kg/injection, schedule: Q01DX009 (ip), vehicle: saline 122 % of control | dose: 120.0 mg/kg/injection, schedule: Q01DX009 (ip), vehicle: saline + alcohol 95 % of control | dose: 200.0 mg/kg/injection, schedule: Q01DX005 (iv), vehicle: saline 115 % of control

O=C(CC(=O)C(F)(F)F)c1cc2ccccc2s1
inactive: [1] 113 % of control | [2] 96 % of control | [3] 115 % of control

COc1ccc2cc1Oc1cc3c(cc1OC)CC[N+](C)(C)C3Cc1ccc(cc1)Oc1c(OC)c(OC)cc3c1C(C2)[N+](C)(C)CC3 (configuration not stated)
inactive: dose: 0.03 mg/kg/injection, schedule: Q01DX009 (ip), vehicle: saline 102 % of control and 106 % of control | dose: 0.07 mg/kg/injection, schedule: Q01DX009 (ip), vehicle: saline 100 % of control and 113 % of control | dose: 0.15 mg/kg/injection, schedule: Q01DX009 (ip), vehicle: saline 105 % of control and 106 % of control and 121 % of control | dose: 0.31 mg/kg/injection, schedule: Q01DX009 (ip), vehicle: saline 105 % of control and 112 % of control and 96 % of control | dose: 0.62 mg/kg/injection, schedule: Q01DX009 (ip), vehicle: saline 118 % of control

CCN(CC)CCNc1ccnc(F)n1
inactive: dose: 30.0 mg/kg/injection, schedule: Q01DX005 (ip), vehicle: saline with Tween-80 101 % of control | [14] 103 % of control

C=C1C(=O)O[C@H]2C1[C@H](OC(=O)/C(C)=C\C)CC(=C)[C@@H]1C(=O)[C@H]3O[C@@]3(C)[C@@]12O (some centres not stated)
inactive: dose: 12.5 mg/kg/injection, schedule: Q01DX005 (ip), vehicle: saline + alcohol 116 % of control and 117 % of control | dose: 25.0 mg/kg/injection, schedule: Q01DX005 (ip), vehicle: saline + alcohol 110 % of control and 121 % of control

O=C(/C=C/c1ccccc1)c1ccccc1O
inactive: [2] 96 % of control | [3] 104 % of control | [4] 101 % of control

COC(=O)C1C/C=C\C=C/N(C)C1=O (configuration not stated)
inactive: dose: 100.0 mg/kg/injection, schedule: Q04DX002 (ip), vehicle: saline with Tween-80 102 % of control | dose: 200.0 mg/kg/injection, schedule: Q04DX002 (ip), vehicle: saline with Tween-80 101 % of control | dose: 400.0 mg/kg/injection, schedule: Q04DX002 (ip), vehicle: saline with Tween-80 101 % of control

CO/C=C/c1cc2c(cc1Br)OCO2
inactive: [14] 105 % of control | [15] 111 % of control | [16] 97 % of control

O=C1NCC2CCCCC12 (configuration not stated)
inactive: [11] 107 % of control | [12] 99 % of control | [13] 100 % of control

COc1ccc2cc1Oc1ccc(cc1)CC1c3cc(OC)c(OC)c(c3CCN1C)Oc1c(O)c(OC)cc3c1C(C2)N(C)CC3 (configuration not stated)
inactive: dose: 20.0 mg/kg/injection, schedule: Q01DX009 (ip), vehicle: Klucel (hydroxypropylcellulose) (HPC) 109 % of control | dose: 40.0 mg/kg/injection, schedule: Q01DX009 (ip), vehicle: Klucel (hydroxypropylcellulose) (HPC) 108 % of control | dose: 80.0 mg/kg/injection, schedule: Q01DX009 (ip), vehicle: Klucel (hydroxypropylcellulose) (HPC) 101 % of control | dose: 160.0 mg/kg/injection, schedule: Q01DX009 (ip), vehicle: Klucel (hydroxypropylcellulose) (HPC) 113 % of control

CCC1CN2CCc3cc(OC)c(OC)cc3C2C(C2(O)C(=O)Nc3ccccc32)C1=O (configuration not stated)
inactive: [8] 99 % of control | [9] 100 % of control | [10] 100 % of control

Clc1ccccc1/C=C/c1ccnnc1
inactive: dose: 25.0 mg/kg/injection, schedule: Q01DX001 (ip), vehicle: saline 96 % of control | dose: 50.0 mg/kg/injection, schedule: Q01DX001 (ip), vehicle: saline 95 % of control | [17] 95 % of control | dose: 100.0 mg/kg/injection, schedule: Q01DX001 (ip), vehicle: suspension in saline 101 % of control | dose: 200.0 mg/kg/injection, schedule: Q01DX001 (ip), vehicle: suspension in saline 97 % of control | dose: 400.0 mg/kg/injection, schedule: Q01DX001 (ip), vehicle: suspension in saline 97 % of control

COc1ccc(/C(C#N)=C\c2ccnc3ccccc23)cc1
inactive: dose: 1.56 mg/kg/injection, schedule: Q01DX009 (ip), vehicle: distilled water + Tween-80 103 % of control | dose: 3.13 mg/kg/injection, schedule: Q01DX009 (ip), vehicle: distilled water + Tween-80 94 % of control | dose: 6.25 mg/kg/injection, schedule: Q01DX009 (ip), vehicle: distilled water + Tween-80 93 % of control | dose: 12.5 mg/kg/injection, schedule: Q01DX009 (ip), vehicle: distilled water + Tween-80 94 % of control | dose: 25.0 mg/kg/injection, schedule: Q01DX009 (ip), vehicle: distilled water + Tween-80 91 % of control
